The target of the test is MMP-13CD (catalytic domain of collagenase-3) (Homo sapiens, UniProt P45452). Briefly: Thiopeptolide substrate hydrolysis inhibition assay, MMP-13CD. In kind it is biochemical. Particulars: Table I; thiopeptolide substrate, HEPES pH 7.0, 22° C.; read-out: MMP-13CD IC50. The source says: Thiopeptolide substrates show virtually no decomposition or hydrolysis at or below neutral pH in the absence of a matrix metalloproteinase enzyme.

`Cn1c(=O)n(CCN2C(=O)c3ccccc3C2=O)c(=O)c2cc(C(=O)OCc3ccccc3)sc21` [Example 113, 3-[2-(1,3-Dioxo-1,3-dihydro-isoindol-2-yl)-ethyl]-1-methyl-2,4-dioxo-1,2,3,4-tetrahydro-thieno[2,3-d]pyrimidine-6-carboxylic acid benzyl ester]: the IC50 amounted to 2900 nM.

Regarding `C=C(Cn1c(=O)c2cc(C(=O)OCc3ccccc3)sc2n(C)c1=O)C(=O)O` [Example 114], the IC50 was 330 nM. For `C=C(Cn1c(=O)c2cc(C(=O)OCc3ccccc3)sc2n(C)c1=O)C(=O)O` [Example 115, 3-(2-Carboxy-allyl)-1-methyl-2,4-dioxo-1,2,3,4-tetrahydro-thieno[2,3-d]pyrimidine-6-carboxylic acid benzyl ester], the IC50 amounted to 330 nM. In the case of `Cn1c(=O)n(CCCN)c(=O)c2cc(C(=O)OCc3ccccc3)sc21` [Example 116, 3-(3-Amino-propyl)-1-methyl-2,4-dioxo-1,2,3,4-tetrahydro-thieno[2,3-d]pyrimidine-6-carboxylic acid benzyl ester], the IC50 was found to be 13000 nM. `Cn1c(=O)n(CN2C(=O)c3ccccc3C2=O)c(=O)c2cc(C(=O)OCc3ccccc3)sc21` [Example 117, 3-(1,3-Dioxo-1,3-dihydro-isoindol-2-ylmethyl)-1-methyl-2,4-dioxo-1,2,3,4-tetrahydro-thieno[2,3-d]pyrimidine-6-carboxylic acid benzyl ester]: the half-inhibitory concentration (IC50) worked out at 36 nM. Next, `Cn1c(=O)n(Cc2ccc(F)cc2)c(=O)c2cc(C(=O)OCc3ccccc3)sc21` [Example 118, 3-(4-Fluoro-benzyl)-1-methyl-2,4-dioxo-1,2,3,4-tetrahydro-thieno[2,3-d]pyrimidine-6-carboxylic acid benzyl ester]: 15 nM. `Cn1c(=O)n(CC2CO2)c(=O)c2cc(C(=O)OCc3ccccc3)sc21` (stereo not drawn) [Example 119, 1-Methyl-3-oxiranylmethyl-2,4-dioxo-1,2,3,4-tetrahydro-thieno[2,3-d]pyrimidine-6-carboxylic acid benzyl ester]: the IC50 came out at 510 nM. For the molecule `CCC(C)Cn1c(=O)c2cc(C(=O)OCc3ccccc3)sc2n(C)c1=O` (stereo not drawn) [Example 120, 1-Methyl-3-(2-methyl-butyl)-2,4-dioxo-1,2,3,4-tetrahydro-thieno[2,3-d]pyrimidine-6-carboxylic acid benzyl ester], the concentration for half-maximal inhibition (IC50) came to 130 nM. Next, `Cn1c(=O)n(CCCCOc2ccccc2)c(=O)c2cc(C(=O)OCc3ccccc3)sc21` [Example 121, 1-Methyl-2,4-dioxo-3-(4-phenoxy-butyl)-1,2,3,4-tetrahydro-thieno[2,3-d]pyrimidine-6-carboxylic acid benzyl ester]: 250 nM; `Cn1c(=O)n(Cc2ccccc2C#N)c(=O)c2cc(C(=O)OCc3ccccc3)sc21` [Example 122, 3-(2-Cyano-benzyl)-1-methyl-2,4-dioxo-1,2,3,4-tetrahydro-thieno[2,3-d]pyrimidine-6-carboxylic acid benzyl ester]: 4500 nM; `Cn1c(=O)n(CCCOc2ccccc2)c(=O)c2cc(C(=O)OCc3ccccc3)sc21` [Example 123, 1-Methyl-2,4-dioxo-3-(3-phenoxy-propyl)-1,2,3,4-tetrahydro-thieno[2,3-d]pyrimidine-6-carboxylic acid benzyl ester]: 7800 nM.

For `C=CCCCCn1c(=O)c2cc(C(=O)OCc3ccccc3)sc2n(C)c1=O` [Example 124, 3-Hex-5-enyl-1-methyl-2,4-dioxo-1,2,3,4-tetrahydro-thieno[2,3-d]pyrimidine-6-carboxylic acid benzyl ester], the concentration for half-maximal inhibition (IC50) amounted to 110 nM. Consider `Cn1c(=O)n(Cc2cccnc2)c(=O)c2cc(C(=O)OCc3ccccc3)sc21` [Example 125, 1-Methyl-2,4-dioxo-3-pyridin-3-ylmethyl-1,2,3,4-tetrahydro-thieno[2,3-d]pyrimidine-6-carboxylic acid benzyl ester], for which the 50% inhibitory concentration (IC50) worked out at 90 nM. With `Cn1c(=O)n(CC(O)COc2cccc3ccccc23)c(=O)c2cc(C(=O)OCc3ccccc3)sc21` (stereo not drawn) [Example 126, 3-[2-Hydroxy-3-(naphthalen-1-yloxy)-propyl]-1-methyl-2,4-dioxo-1,2,3,4-tetrahydro-thieno[2,3-d]pyrimidine-6-carboxylic acid benzyl ester] the figure was 13000 nM. With `Cn1c(=O)c2cc(C(=O)OCc3ccccc3)sc2n(C)c1=O` [Example 127, 1,3-Dimethyl-2,4-dioxo-1,2,3,4-tetrahydro-thieno[2,3-d]pyrimidine-6-carboxylic acid benzyl ester] the figure was 3900 nM. With `C=CCn1c(=O)c2cc(C(=O)OCc3ccccc3)sc2n(C)c1=O` [Example 129, 3-Allyl-1-methyl-2,4-dioxo-1,2,3,4-tetrahydro-thieno[2,3-d]pyrimidine-6-carboxylic acid benzyl ester] the figure was 160 nM; with `C#CCn1c(=O)c2cc(C(=O)OCc3ccccc3)sc2n(C)c1=O` [Example 130, 1-Methyl-2,4-dioxo-3-prop-2-ynyl-1,2,3,4-tetrahydro-thieno[2,3-d]pyrimidine-6-carboxylic acid benzyl ester], 97 nM; with `CC#CCn1c(=O)c2cc(C(=O)OCc3ccccc3)sc2n(C)c1=O` [Example 131, 3-But-2-ynyl-1-methyl-2,4-dioxo-1,2,3,4-tetrahydro-thieno[2,3-d]pyrimidine-6-carboxylic acid benzyl ester], 19 nM. For the molecule `Cn1c(=O)n(CCOc2ccccc2)c(=O)c2cc(C(=O)OCc3ccccc3)sc21` [Example 132, 1-Methyl-2,4-dioxo-3-(2-phenoxy-ethyl)-1,2,3,4-tetrahydro-thieno[2,3-d]pyrimidine-6-carboxylic acid benzyl ester], the IC50 was found to be 74 nM.

With `Cn1c(=O)n(CCOc2ccccc2)c(=O)c2cc(C(=O)OCc3ccccc3)sc21` [Example 133, 1-Methyl-2,4-dioxo-3-(2-phenoxy-ethyl)-1,2,3,4-tetrahydro-thieno[2,3-d]pyrimidine-6-carboxylic acid benzyl ester], the IC50 came to 74 nM.

For the molecule `CC(CO)Cn1c(=O)c2cc(C(=O)OCc3ccccc3)sc2n(C)c1=O` (stereo not drawn) [Example 134, 3-(3-Hydroxy-2-methyl-propyl)-1-methyl-2,4-dioxo-1,2,3,4-tetrahydro-thieno[2,3-d]pyrimidine-6-carboxylic acid benzyl ester], the IC50 is 1500 nM.

For `CC(C)Cn1c(=O)c2cc(C(=O)OCc3ccccc3)sc2n(C)c1=O` [Example 135, 3-Isobutyl-1-methyl-2,4-dioxo-1,2,3,4-tetrahydro-thieno[2,3-d]pyrimidine-6-carboxylic acid benzyl ester], the IC50 is 86 nM. With `Cn1c(=O)n(Cc2ccc(Cl)nc2)c(=O)c2cc(C(=O)OCc3ccccc3)sc21` [Example 136, 3-(6-Chloro-pyridin-3-ylmethyl)-1-methyl-2,4-dioxo-1,2,3,4tetrahydro-thieno[2,3-d]pyrimidine-6-carboxylic acid benzyl ester] the figure was 51 nM. Next, `Cn1c(=O)n(Cc2ccccc2CS(=O)(=O)c2ccccc2)c(=O)c2cc(C(=O)OCc3ccccc3)sc21` [Example 137, 3-(2-Benzenesulfonylmethyl-benzyl)-1-methyl-2,4-dioxo-1,2,3,4tetrahydro-thieno[2,3-d]pyrimidine-6-carboxylic acid benzyl ester]: 8300 nM; `Cn1c(=O)n(Cc2cccc3ccccc23)c(=O)c2cc(C(=O)OCc3ccccc3)sc21` [Example 138, 1-Methyl-3-naphthalen-1-ylmethyl-2,4-dioxo-1,2,3,4-tetrahydro-thieno[2,3-d]pyrimidine-6-carboxylic acid benzyl ester]: 660 nM. Take `Cn1c(=O)n(Cc2ccccc2C(F)(F)F)c(=O)c2cc(C(=O)OCc3ccccc3)sc21` [Example 139, 1-Methyl-2,4-dioxo-3-(2-trifluoromethyl-benzyl)-1,2,3,4-tetrahydro-thieno[2,3-d]pyrimidine-6-carboxylic acid benzyl ester]: the IC50 was determined as 250 nM.

As for `Cn1c(=O)n(Cc2cccc(Cl)c2)c(=O)c2cc(C(=O)OCc3ccccc3)sc21` [Example 140], the IC50 was determined as 17 nM.

Turning to `CCn1c(=O)c2cc(C(=O)OCc3ccccc3)sc2n(C)c1=O` [Example 142, 3-Ethyl-1-methyl-2,4-dioxo-1,2,3,4-tetrahydro-thieno[2,3-d]pyrimidine-6-carboxylic acid benzyl ester], the half-maximal inhibitory concentration (IC50) was found to be 390 nM. Turning to `Cn1c(=O)n(CCCc2ccccc2)c(=O)c2cc(C(=O)OCc3ccccc3)sc21` [Example 143, 1-Methyl-2,4-dioxo-3-(3-phenyl-propyl)-1,2,3,4-tetrahydro-thieno[2,3-d]pyrimidine-6-carboxylic acid benzyl ester], the half-maximal inhibitory concentration (IC50) is 280 nM. Consider `Cn1c(=O)n(CCS(=O)(=O)c2ccc(Cl)cc2)c(=O)c2cc(C(=O)OCc3ccccc3)sc21` [Example 144, 3-[2-(4-Chloro-benzenesulfonyl)-ethyl]-1-methyl-2,4-dioxo-1,2,3,4-tetrahydro-thieno[2,3-d]pyrimidine-6-carboxylic acid benzyl ester], for which the IC50 was 3 nM. With `CC(=O)OCCn1c(=O)c2cc(C(=O)OCc3ccccc3)sc2n(C)c1=O` [Example 145, 3-(2-Acetoxy-ethyl)-1-methyl-2,4-dioxo-1,2,3,4-tetrahydro-thieno[2,3-d]pyrimidine-6-carboxylic acid benzyl ester] the figure was 1300 nM. Turning to `Cn1c(=O)n(Cc2ccccc2)c(=O)c2cc(C(=O)OCCOc3ccccc3)sc21` [Example 146, 3-Benzyl-1-methyl-2,4-dioxo-1,2,3,4-tetrahydro-thieno[2,3-d]pyrimidine-6-carboxylic acid 2-phenoxyethyl ester], the IC50 was 47000 nM. Next, `Cn1c(=O)n(Cc2ccccc2)c(=O)c2cc(C(=O)NCc3ccccc3)sc21` [Example 148, 3-Benzyl-1-methyl-2,4-dioxo-1,2,3,4-tetrahydro-thieno[2,3-d]pyrimidine-6-carboxylic acid benzyl amide]: 540 nM.

The values are drawn from patent US20030004172A1, “Fused pyrimidinone matrix metalloproteinase inhibitors” (priority 2001, published 2003).
